Assay results as given in article PMC8421406, “C9orf72-derived arginine-rich poly-dipeptides impede phase modifiers” (Nature Communications, 2021).
“Also recorded” adds a separate entry of the source. Where no end group is shown, it is not given here. HA = HA epitope tag

Experiments:
[1] = test system: FUS droplets (MBP:FUS/MBP:FUS:EGFP) / Kapβ2; test: Fluorescence microscopy of FUS droplets; type: biochemical; conditions: 16 μM Kapβ2, 16 μM Kapβ2–M9M complex, 50 μM PR20, repeated three times
Kapβ2 = test: Solution NMR (1H-13C methyl) of labelled Kapβ2; type: binding
Protocol: The Kapβ2 expression plasmid was transformed into BL21(DE3) cells. The protein samples with ^1H,^13C-labeled methyl groups in deuterium background were prepared as described in a previous study. The cells were grown in medium with ^15NH4Cl (2 gL^−1, CIL) and ^2H7-glucose (2 g L^−1, CIL) in 99.9% ^2H2O (Isotec). The precursors for methyl groups of Ile, Val, and Leu, α-ketobutyric acid (50 mg L^−1) and α-ketoisovaleric acid (80 mg L^−1), and [^13CH3] methionine (50 mg L^−1) were added to the culture 1 h before the addition of IPTG. Protein expression was induced by the addition of 0.5 mM IPTG at OD600 ~ 0.6, followed by ~16 h of incubation at 25 °C. […] Protein concentration was determined spectrophotometrically at 280 nm using a corresponding extinction coefficient.
The isotopically labeled Kapβ2 was prepared in the NMR buffer containing 20 mM ^2H-Tris pH 7.4, 150 mM NaCl, 2 mM MgCl2, 2 mM DTT, and 2% glycerol, concentrated to 20 μM. […] Perturbation of the side chain methyl resonances were each monitored using ^1H-^13C heteronuclear multiple quantum coherence. […] The perturbations of the resonances were evaluated based on chemical shift change or intensity change. […]
In order to investigate the interaction between Kapβ2 and PR poly-dipeptide by NMR, the NMR spectra of the isotopically labeled Kapβ2 in the absence and presence of the synthetic peptide of PR20:HA were measured. […]

[2] = test system: Kapβ2 / MBP:FUS-NLS complex; test: Competitive pull-down: release of MBP:FUS-NLS from GST:Kapβ2; type: binding; conditions: MBP:FUS-NLS (501–526) : GST:Kapβ2 1:1, PR20:HA competitor; repeated twice
Text: Unbound proteins were washed three times with the buffer.

“PR20: twenty repeats of proline:arginine with an HA epitope tag at the C terminus, synthesized by SCRUM, Inc. (PRPRPRPRPRPRPRPRPRPRPRPRPRPRPRPRPRPRPRPR-{HA})” was tested. Which “Effect on FUS droplets (microscopy)” value [1] did it give?
The value was “not melted in the presence of PR20”.

What about the “Perturbation of Kapβ2 methyl resonances” value (Kapβ2; 20 μM labelled Kapβ2, 20 °C, 20 mM Tris pH 7.4, 150 mM NaCl, 600/800 MHz) of the same substance?
Its value is “induced significant perturbations to several resonances of Kapβ2; also recorded: several resonances show significant perturbations induced only by PR20”.

And the “Binding site on Kapβ2 by NMR” value (Kapβ2; comparison of perturbations by PR20, M9M and FUS-ΔNLS)?
Its value is “partially occupy the NLS-binding site of Kapβ2”.

What about the “Release of MBP:FUS-NLS from Kapβ2” value [2] of the same substance?
The value was “release of MBP:FUS-NLS from Kapβ2”.
